Converted amounts (≈) assume the structure as drawn. “Also recorded” adds a separate entry of the source. Like-named read-outs stand apart in the source and are kept apart here.
Tests used:
H37Rv strain of Mtb = assay: microbe, parasite or virus in culture; assay type: cell-based, M. tuberculosis
Vero monkey kidney cells = assay: In vitro toxicity, MTS assay in Vero cells; assay type: cell-based; conditions: for SI (selectivity index, ratio of IC50:MIC): IC50 Vero cells : MIC
Experimental: Cytotoxicity The Vero cell line (ATCC CCL-8 1) was seeded overnight at 5×10^4 cells per well in 96-well plates at 37° C. and 5% CO2 in EMEM with essential amino acids and glutamine (BioFluids) supplemented with 10% heat-inactivated fetal bovine serum (FBS). Cells were exposed to dilutions of experimental and control drugs in triplicate for 72 hr, with each compound at a range of concentrations from 15-200 μM. Chlorpromazine (Sigma) was run as a control at the same concentrations. CellTiter 96 AQueous Assay (Promega) was used for determination of Vero cell viability. Briefly, a solution of MTS salt (3-(4,5-dimethylthiazol-2-yl)-5-(3-carboxymethoxyphenyl)-2-(4-sulfophenyl)-2H-tetrazolium) and phenazine methosulfate was added to each well and plates were incubated for 2 hr at 37° C. and 5% CO2. Absorbance of each well was read using BioRad microplate reader at 490 nm. Viability (absorbance) of cells in drug-exposed wells was compared to those in drug-free control wells, and a curve relating cell viability to drug concentration was created.

M. tuberculosis = conditions: background statement; cited from earlier work
M. tuberculosis H37Rv [1] = assay: Rapid (3 wk) murine model of TB, body weight loss; assay type: in vivo, mice; conditions: for prevention of body weight loss and mortality: mice iv 10^6 CFU, test drugs 10 mg/kg daily by gavage for 10 days, INH 25 or 2.5 mg/kg; for loss of initial body weight: by day 21 following challenge, 10 mg/kg
HepG2 cell line = assay: In vitro cytotoxicity, MTS assay in HepG2 cell line; assay type: cell-based; conditions: Homo sapiens, HepG2 cells
[2] = tested on: M. tuberculosis in TB-infected mouse macrophage RAW 264.7 cells; assay: Efficacy in TB-infected macrophages, bioluminescence reporter assay; assay type: cell-based; conditions: for efficacy in macrophages compared to standard drugs (words): RAW 264.7, treated 6 days, 4 timepoints, five concentrations; for intracellular activity compared to EMB and INH: RAW 264.7, 7 days, day 7 readout
M. tuberculosis H37Rv [3] = assay: Murine model of chronic TB, CFU in lung and spleen; assay type: in vivo, mice; conditions: for activity against M. tuberculosis in vivo: mice, two models (rapid and chronic)
[4] = tested on: recombinant mycobacteria containing a promoter fusion of luciferase to Rv0341; assay type: cell-based, M. tuberculosis; conditions: active = exceeds untreated control by 1.5 times
[5] = list of preferred compounds (FIG. 20)
[6] = cytotoxicity, list of preferred compounds (FIG. 20), read-out: IC50
[7] = Mycobacterium tuberculosis, H37RV, list of preferred compounds (FIG. 20), read-out: MIC
[8] = Primates, Vero, cytotoxicity, list of preferred compounds (FIG. 20), read-out: IC50
[9] = Mycobacterium tuberculosis, H37RV, Examples 4 and 5 and screening summary, read-out: MIC
[10] = Mycobacterium tuberculosis, H37RV, read-out: MIC

SMILES	MIC (H37Rv strain of Mtb; [7]) [µM]	SI (selectivity index, ratio of IC50:MIC) (Vero monkey kidney cells)	IC50 (Vero monkey kidney cells; [8]) [µM]	MIC (H37Rv strain of Mtb; [9]) [µM]	MIC (H37Rv strain of Mtb; [10]) [µM]	IC50 (HepG2 cell line) [µM]	also measured
CC(C)=CCC/C(C)=C/CNCCCN1CCCCC1C (stereo not drawn) [#711, 1-(N-Geranyl)-3-Aminopropylpipecoline]							MIC (H37Rv strain of Mtb; [5]): 6.25 µM (≈ 1.83 µg/mL)
CC1CCCCN1CCCNCc1ccc(C(F)(F)F)cc1 (stereo not drawn) [#712, 1-(N-(4-Trifluorobenzyl)-3-Aminopropyl)pipecoline]							MIC (H37Rv strain of Mtb; [5]): 12.5 µM (≈ 3.93 µg/mL)
Fc1ccccc1N1CCN(C2CCC3CCCCC3C2)CC1 (stereo not drawn) [#765, N-(2-Fluorophenyl)-N′-(2-decalone)piperazine]							MIC (H37Rv strain of Mtb): 6.25 µM (≈ 1.98 µg/mL); IC50 (Vero monkey kidney cells; [6]): 70 µM
CCOc1ccccc1CN1CCN(c2ccccc2F)CC1 [#766, N-(2-Fluorophenyl)-N′-(2-ethoxybenzyl)piperazine]	12.5 (≈ 3.93 µg/mL)	6.08					IC50 (Vero monkey kidney cells; Primates, Vero): 76 µM
c1ccc(CN2CCN(C3C4CC5CC(C4)CC3C5)CC2)cc1 (stereo not drawn) [#785, N-Benzyl-N′-2-Adamantylpiperazine]	12.5 (≈ 3.88 µg/mL)	7.76	97				
c1ccc(CN2CCN(C3CCC4CCCCC4C3)CC2)cc1 (stereo not drawn) [#787, N-Benzyl-N′-2-Decalonepiperazine]							MIC (H37Rv strain of Mtb; [5]): 12.5 µM (≈ 3.91 µg/mL); IC50 (Vero monkey kidney cells; [6]): 70 µM
CC[C@@H](CO)NCCN[C@@H](CC)CO [EMB, Ethambutol, reference compound]				12.5 (≈ 2.55 µg/mL)			Minimum Inhibition Concentration (MIC) (M. tuberculosis): about 5 μg/ml
NNC(=O)c1ccncc1 [INH, Isoniazid, reference compound]				1 (≈ 0.137 µg/mL)			prevention of body weight loss and mortality (M. tuberculosis H37Rv [1]): did not show any signs of body loss
C1CN(C2C3CC4CC(C3)CC2C4)CCN(C2C3CC4CC(C3)CC2C4)C1 (stereo not drawn) [SQ775, N,N′-Bis(2-Adamantane)homopiperazine]	7.8 (≈ 2.88 µg/mL)	16.92	132	6.25 (≈ 2.3 µg/mL)	7.8 (≈ 2.88 µg/mL)	132	efficacy in macrophages compared to standard drugs (words) ([2]; listed as 775): as effective as isoniazid; efficacy in macrophages compared to standard drugs (words) ([2]; listed as #775): equal or superior to ethambutol; inhibition of bacterial growth ([2]; intracellular, RAW 264.7, day 7, concentration 2×MIC): 99%; loss of initial body weight (M. tuberculosis H37Rv [1]): 4%; prevention of body weight loss and mortality (M. tuberculosis H37Rv [1]): prevented body weight loss and delayed mortality; mortality in the group (M. tuberculosis H37Rv [1]; one week after chemotherapy withdrawn, 6 mice): 50%; loss of initial body weight of mice that remained alive (M. tuberculosis H37Rv [1]; ten days later, after chemotherapy withdrawal, 3 mice): about 20%; activity against M. tuberculosis in vivo (M. tuberculosis H37Rv [3]): promising activity against M.tb in vivo; also recorded: efficacious
C1CCCC(N2CCCN(C3CCCCCCC3)CC2)CCC1 [SQ777]					7.8 (≈ 2.5 µg/mL)	74	
C1CCC2CC(N3CCCN(C4CCC5CCCCC5C4)CC3)CCC2C1 (stereo not drawn) [SQ778, N,N′-Bis(2-Decalone)homopiperazine]	7.8 (≈ 2.91 µg/mL)	6.92	54		7.8 (≈ 2.91 µg/mL)	54	
CC1(C)C2CC=C(CN3CCCN(CC4=CCC5CC4C5(C)C)CC3)C1C2 [SQ779]	7.8 (≈ 2.88 µg/mL)	14.1	110		7.8 (≈ 2.88 µg/mL)	110	
CCOc1ccccc1CN1CCCN(Cc2ccccc2OCC)CC1 [SQ780, N,N′-Bis(2-Ethoxybenzyl)homopiperazine]	1.56 (≈ 0.575 µg/mL)	18.21	71	1.56 (≈ 0.575 µg/mL)	3.9 (≈ 1.44 µg/mL)	71	intracellular activity compared to EMB and INH [2]: equivalent to or better than EMB, but less active than INH; efficacy in macrophages compared to standard drugs (words) [2]: equal or superior to ethambutol; loss of initial body weight (M. tuberculosis H37Rv [1]): 13%; prevention of body weight loss and mortality (M. tuberculosis H37Rv [1]): low efficacy; also recorded: not active; reduction of CFU in spleen (M. tuberculosis H37Rv [3]; 10 mg/kg daily by gavage, 28 days, museum strain of H37Rv): 1 log; activity against M. tuberculosis in vivo (M. tuberculosis H37Rv [3]): efficacious
C=C(C)[C@@H]1CC=C(CN2CCCN(CC3=CC[C@@H](C(=C)C)CC3)CC2)CC1 [SQ781]							MIC (H37Rv strain of Mtb; Examples 4 and 5 and screening summary): high MIC
COc1ccccc1CN1CCCN(Cc2ccccc2OC)CC1 [SQ782]				6.25 (≈ 2.13 µg/mL)	7.8 (≈ 2.66 µg/mL)	105	intracellular activity compared to EMB and INH [2]: equivalent to or better than EMB, but less active than INH; efficacy in macrophages compared to standard drugs (words) [2]: equal or superior to ethambutol
c1ccc(COc2ccc(CN3CCN(Cc4ccccc4)CC3)cc2)cc1 [SQ786, N -benzyl-N′-(4-benzyloxy)benzylpiperazine]				3.9 (≈ 1.45 µg/mL)	3.13 (≈ 1.17 µg/mL)	54	activity in the Luc assay [4]: not active; prevention of body weight loss and mortality (M. tuberculosis H37Rv [1]): prevented body weight loss and delayed mortality; activity against M. tuberculosis in vivo (M. tuberculosis H37Rv [3]): promising activity against M.tb in vivo; also recorded: efficacious

Reference: patent publication US7884097B2, “Methods and compositions comprising diamines as new anti-tubercular therapeutics” (Sequella, Inc., priority 2003, dated 2011)
